The assay addresses T1, pyruvate formate-lyase activating enzyme (PFL-AE) (Escherichia coli, UniProt P0A9N4).
T1 sequence (P0A9N4 2-246): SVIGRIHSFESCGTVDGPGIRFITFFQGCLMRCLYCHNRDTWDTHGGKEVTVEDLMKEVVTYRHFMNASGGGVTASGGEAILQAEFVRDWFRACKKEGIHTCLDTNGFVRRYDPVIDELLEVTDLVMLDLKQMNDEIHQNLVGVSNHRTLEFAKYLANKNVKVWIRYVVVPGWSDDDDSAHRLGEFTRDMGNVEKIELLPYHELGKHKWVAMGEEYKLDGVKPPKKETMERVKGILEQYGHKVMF
The assay is described as follows: […] Mössbauer spectroscopy. The format is binding. As to conditions: 0.64 mM enzyme, [4Fe-4S]2+ state; 4.2 K, 50 mT; unique Fe site of cluster.

In the case of `Nc1ncnc2c1ncn2[C@@H]1O[C@H](COP(=O)(O)O)[C@@H](O)[C@H]1O` [AMP], the “fraction of LOC cluster at 6.4 mM” value is listed as 69 % of total Fe.
For the compound `Nc1ncnc2c1ncn2[C@@H]1O[C@H](COP(=O)(O)OP(=O)(O)O)[C@@H](O)[C@H]1O` [ADP], the “fraction of LOC cluster at 6.4 mM” value was 50 % of total Fe.
